Structures can show the parent of a compound that is named as a salt.
Tested on: carrageenin-induced rat foot edema
Test: carrageenin-induced rat foot edema test
Type: in vivo, rat (male albino)
Details: 33 mg/kg, p.o., 3 hours after carrageenin, vs non-drug treated control
Procedure: The activity of the compounds of the present invention as anti-inflammatoryagents may be determined by pharmacological tests, for example the standard carrageenin-induced rat foot edema test using the general procedure described by C. A. Winter et. al., see Proceedings of the Society of Experimental Biology in Medicine, Volume 111, page 544 (1962). In this test, anti-inflammatory activity is determined as the percent inhibition of edema formation in the hind paw of male albino rats (generally weighing about 150 to 190 grams) in response to a sub-plantar injection of carrageenin. The carrageenin is injected as a 1% aqueous suspension 1 hour after oral administration of the drug, which is normally given in the form of an aqueous solution or suspension. Edema formation is then assessed 3 hours after the carrageenin injection by comparing the initial volume of the injected paw and the volume after a 3 hour period. The increase in volume 3 hours after carrageenin injection constitutes the individual response. Compounds are considered active if the response between the drug-treated animals (6 rats per group) and the control group, i.e. the animals receiving the vehicle alone, is found to be significant on comparison with the results afforded by standard compounds like acetylsalicyclic acid at 100 mg/kg or phenylbutazone at 33 mg/kg, both by the oral route of administration.
The anti-inflammatory activity of aminothiazoles of this invention was determined using the standard carrageenin-induced rat foot edema test, according to the procedure essentially as described by C. A. Winter etl. al., and reported in the Proceedings of the Society for Experimental Biology and Medicine, Vol. 111, p. 544 (1962). The compounds were administered orally in the form of their previously reported hydrohalide salts at a dose level of 33 mg/kg. The results obtained in this manner are presented in the table below in terms of the percent inhibition of edema formation afforded by each test compound as compared to the non-drug treated control (i.e., aqueous solution with no compound): […]

Row | Compound | % Inhibition of edema [%]
1 | Br.c1ccc(CCNc2nc(-c3ccccc3)cs2)cc1 [Example 2, 2-phenethylamino-4-phenyl-thiazole hydrobromide] | 47
2 | COc1ccc(CCNc2nc(-c3ccc(F)cc3)cs2)cc1 [2-(p-methoxyphenethylamino)-4-(p-fluorophenyl)-thiazole] | 29
3 | Fc1ccc(-c2csc(NCc3cccs3)n2)cc1 [2-thenyl, 4-fluorophenyl, hydrogen, HBr, 2-thenylamino-4-(p-fluorophenyl)-thiazole] | 49

Tested on: murine thymus cells
Test: in vitro stimulation of lymphocyte proliferation of murine thymus cells cultured in the presence of Concanavalin A (lymphocyte stimulation assay, LSA)
Type: cell-based, mouse (male C57B1/6)
Details: Con A-stimulated thymus cells, 48 h at 37° C., highest 3H-thymidine cpm of eight concentrations 0.02 to 50 μg/ml, hydrohalide salts
Description: The immune regulant activity of the compounds of the present invention may be determined by such pharmacological tests as the stimulation in vitro of lymphocyte proliferation of murine thymus cells cultured in the presence of Concanavalin A (Con A), employing the general evaluation procedure of V. J. Merluzzi et. al., see Journal of Clinical and Experimental Immunology, Volume 22, page 486 (1975).
The immune regulant activity of the aminothiazoles described in Examples 2, 3, 4, 6, 7, 8, 10 and 11 was evaluated by determining their ability to stimulate, in vitro the lymphocyte proliferation of murine thymus cells cultured in the presence of Concanavalin A (Con A) by employing the procedure of V. J. Merluzzi et. al., as essentially described in the Journal of Clinical and Experimental Immunology, Vol. 22, p. 486 (1975). The cells were derived from male C57B1/6 mice of from 6-8 weeks age, purchased from the Jackson Laboratories of Bar Harbor, Maine and the Con A was obtained from Sigma Chemicals of St. Louis, Mo. Each cell culture (consisting of 0.10 ml thymus cells stock solution, 0.05 ml of Con A stock solution and 0.05 ml of drug solution) was performed in quadruplicate and cellular proliferation was measured, after 48 hours of incubation at 37° C., by pulsing each culture with ^3 H-thymidine (0.01 ml of specific activity 1.9 C/mM, obtained from Schwarz-Mann, Inc. of Orangeburg, N.Y.) and then determining the incorporation of ^3 H-thymidine into cellular deoxyribonucleic acid (DNA) by an assessment of radioactivity using a liquid scintillation counter. […] These quadruplicate determinations are employed at eight different concentrations of drugs in the range 0.02 to 50 μg/ml. The highest cpm value obtained is employed in the scoring system.

Row | Compound | LSA activity
4 | Br.Cc1sc(NCc2ccco2)nc1-c1ccccc1 [Example 10, 2-furfurylamino-5-methyl-4-phenyl-thiazole hydrobromide] | +++ (those having an activity (27,000±1,000 cpm) greater than levamisole were scored as +++)
5 | Br.c1ccc(CCNc2nc(-c3ccccc3)cs2)cc1 [Example 2, 2-phenethylamino-4-phenyl-thiazole hydrobromide] | +++ (those having an activity (27,000±1,000 cpm) greater than levamisole were scored as +++)
6 | Fc1ccc(-c2csc(NCc3cccs3)n2)cc1 [Example 7, 2-thenylamino-4(p-fluorophenyl)-thiazole hydrochloride] | +++ (those having an activity (27,000±1,000 cpm) greater than levamisole were scored as +++)
7 | c1ccc(-c2csc(NCc3cccs3)n2)cc1 [Example 6, 2-thenylamino-4-phenyl-thiazole hydrobromide] | +++ (those having an activity (27,000±1,000 cpm) greater than levamisole were scored as +++)
8 | Br.Cc1sc(NCCc2ccccc2)nc1-c1ccccc1 [Example 3, 2-phenethylamino-4-phenyl-5-methylthiazole hydrobromide] | +++ (those having an activity (27,000±1,000 cpm) greater than levamisole were scored as +++)

Same assay, conditions: levamisole standard; drug level with maximum activity, Con A-stimulated thymus cells, 48 h at 37° C.

Row | Compound | average counts per minute of 3H-thymidine incorporated (LSA activity)
9 | c1ccc([C@H]2CN3CCSC3=N2)cc1 [levamisole, reference compound] | 22,000±900 cpm
